Patent publication US11925690B2, “Bifunctional molecules for targeting Rpn11” (AMPHISTA THERAPEUTICS LTD, priority 2018, dated 2024)

Columns and labels:
Type in all cases: cell-based
[1] = biological target: T1, Brd2 (Homo sapiens, UniProt P25440); assay: Concentration-dependent BET degradation, immunoblot; design: endogenous in cells; host or cells: HEK293 (CRL-1573), HeLa (CCL-2); details: 1 nM-10 μM
Description: (§1) Immunoblotting. Proteins were separated by SDS-PAGE on NuPage 4-12% Bis-Tris gels, followed by transfer to Amersham Protran 0.45 NC nitrocellulose membrane (GE Healthcare) using wet transfer. Membranes were blocked using 5% w/v milk in Tris-buffered saline (TBS) with 0.1% Tween-20. Blots were probed (overnight at 4 °C) using anti-Brd2 (Abcam ab139690, 1:2,000 dilution), anti-Brd3 (Abcam ab50818, 1:500 dilution), and anti-Brd4 (Abcam ab128874, 1:1,000 dilution) primary antibodies, as appropriate. The next day, blots were washed with TBST and incubated (1 h at Room temperature) with anti-Tubulin hFAB-rhodamine (BioRad, 12004166) primary antibody, and either anti-rabbit IRDye 800CW (Licor 1:1,000 dilution) or anti-mouse IRDye 800CW (Licor 1:1,000 dilution) secondary antibody. Blots were developed using a Bio-Rad ChemiDoc MP Imaging System, and band quantification was performed using Image Studio software (LiCor). Band intensities were normalized to the tubulin loading control and reported as % of the average 0.1% DMSO vehicle intensity. Degradation data was plotted and analysed using Prism (Graphpad, version 8).
(§2) HeLa (5×10^5) and HEK293 (1×10^6) cells were seeded in standard 6-well plates (2 mL medium) overnight before treatment with compounds at the desired concentration (1 nM-10 μM), with a final DMSO concentration of 0.1% v/v. After 4 h treatment time, cells were washed with DPBS (Gibco) and lysed using 85 μL RIPA buffer (Sigma-Aldrich) supplemented with cOmplete Mini EDTA-free protease inhibitor cocktail (Roche) and benzonase. Lysates were clarified by centrifugation (20000 g, 10 min, 4° C.) and the total protein content of the supernatant was quantified using a Bradford colorimetric assay. Samples were prepared using equal amounts of total protein and LDS sample buffer (Invitrogen). Band intensities were normalized to the tubulin loading control and reported as % of the average 0.1% DMSO vehicle intensity. Degradation data was plotted and analysed using Prism (Graphpad, version 8).
(§3) MZ1 and 11JQ17 were used at 1 μM for positive and negative controls, respectively. […] For the table, Dmax: +(Dmax≤25%); ++(26%≤Dmax≤50%); +++(51%≤Dmax≤70%); ++++(71%≤DC50: A (DC50≤50 nM); B (51 nM≤DC50≤500 nM); C (501 nM≤DC50).

[2] = biological target: Brd3 (Homo sapiens, UniProt Q15059); assay: Time-dependent BET degradation, immunoblot; details: HEK293, Brd3, 1 μM; for Dmax at 1 µM: 0-24 hrs; for Abs. T1/2: time to deplete 50% of the protein relative to DMSO; for T1/2: time to reach 50% of the Dmax
Sequence of Brd3 (Q15059 whole entry): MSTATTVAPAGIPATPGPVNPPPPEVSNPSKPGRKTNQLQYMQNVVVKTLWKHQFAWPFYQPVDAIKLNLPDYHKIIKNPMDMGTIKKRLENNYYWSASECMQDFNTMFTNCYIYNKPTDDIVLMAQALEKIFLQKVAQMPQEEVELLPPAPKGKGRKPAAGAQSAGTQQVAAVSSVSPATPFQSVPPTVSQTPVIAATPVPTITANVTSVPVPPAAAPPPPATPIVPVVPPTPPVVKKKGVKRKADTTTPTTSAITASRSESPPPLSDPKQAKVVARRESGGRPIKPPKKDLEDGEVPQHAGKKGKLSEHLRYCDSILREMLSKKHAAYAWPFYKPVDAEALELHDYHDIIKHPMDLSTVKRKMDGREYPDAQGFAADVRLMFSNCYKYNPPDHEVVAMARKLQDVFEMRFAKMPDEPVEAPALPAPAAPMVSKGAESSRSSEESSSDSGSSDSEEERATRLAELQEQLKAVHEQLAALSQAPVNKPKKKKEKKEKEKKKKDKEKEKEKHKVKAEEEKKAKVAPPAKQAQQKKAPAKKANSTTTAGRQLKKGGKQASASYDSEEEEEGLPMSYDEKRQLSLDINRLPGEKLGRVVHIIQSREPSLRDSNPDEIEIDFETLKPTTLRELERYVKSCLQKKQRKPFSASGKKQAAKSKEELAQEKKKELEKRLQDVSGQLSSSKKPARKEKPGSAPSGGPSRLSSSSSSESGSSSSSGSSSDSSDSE
Description: as §1
as §2, with “HEK293” for “HeLa (5×10^5) and HEK293”, “(0.5×10^6)” for “(1×10^6)”, “1 μM concentration,” for “the desired concentration (1 nM-10 μM),”, “incubation for the desired time (0-24 hrs),” for “4 h treatment time,”, “complete” for “cOmplete”
(§4) MZ1 and 11JQ17 were used at 1 μM (4 h) for positive and negative controls, respectively. […]

[3] = biological target: T1, Brd2; assay: Time-dependent BET degradation, immunoblot; details: HEK293, Brd2, 1 μM; for Dmax at 1 µM: 0-24 hrs; for Abs. T1/2: time to deplete 50% of the protein relative to DMSO; for T1/2: time to reach 50% of the Dmax
Description: as §1
as §2, with “HEK293” for “HeLa (5×10^5) and HEK293”, “(0.5×10^6)” for “(1×10^6)”, “1 μM concentration,” for “the desired concentration (1 nM-10 μM),”, “incubation for the desired time (0-24 hrs),” for “4 h treatment time,”, “complete” for “cOmplete”
as §4

[4] = biological target: T2, Brd4 (S) (Homo sapiens, UniProt O60885); assay: Concentration-dependent BET degradation, immunoblot; details: 4 h, 1 nM-10 μM
T2 construct: endogenous in cells; host or cells: HEK293 (CRL-1573), HeLa (CCL-2)
Description: as §1, §2, §3

[5] = biological target: T3, Brd4 (L) (Homo sapiens, UniProt O60885); assay: as above; details: 4 h, 1 nM-10 μM
T3 construct: endogenous in cells; host or cells: HEK293 (CRL-1573), HeLa (CCL-2)
Description: as §1, §2, §3

[6] = test system: Brd2, Brd3 and Brd4; assay: Immunoblot analysis of BET protein levels in HEK293 cells; details: for Brd2, Brd3 and Brd4 protein levels (FIG. 5): HEK293, 1 μM, various time points; for Brd2, Brd3 and Brd4 protein levels (FIG. 4): increasing concentrations
Description: Cell culture. HeLa (CCL-2) and HEK293 (CRL-1573) cells were purchased from ATCC and cultured in DMEM medium (Gibco) supplemented with 10% FBS, 100 μg/mL penicillin/streptomycin and L-glutamine. Cells were grown at 37° C. and 5% CO2 and were kept no longer than 30 passages. All cell lines were routinely tested for mycoplasma contamination using MycoAlert kit from Lonza.
HeLa (5×10^5) and HEK293 (1×10^6) cells were seeded in standard 6-well plates (2 mL medium) overnight before treatment with 1 μM compound with a final DMSO concentration of […]. After 4 h incubation time, cells were washed with DPBS (Gibco) and lysed using 85 μL RIPA buffer (Sigma-Aldrich) supplemented with cOmplete Mini EDTA-free protease inhibitor cocktail (Roche) and benzonase. Lysates were clarified by centrifugation (20000 g, 10 min, 4° C.) and the total protein content of the supernatant was quantified using a Bradford colorimetric assay. Samples were prepared using equal amounts of total protein and LDS sample buffer (Invitrogen).
as §1, §2
HEK293 (0.5×10^6) cells were seeded in standard 6-well plates (2 mL medium) overnight before treatment with compounds at 1 μM concentration, with a final DMSO concentration of 0.1% v/v. […] Lysates were clarified by centrifugation (20000 g, 10 min, 4° C.) and the total protein content of the supernatant was quantified using a Bradford colorimetric assay. […] Degradation data was plotted and analysed using Prism (Graphpad, version 8).

[7] = biological target: T2, Brd4 (S); assay: Time-dependent BET degradation, immunoblot; design: Dmax: dose or concentration left out as unconfirmed; details: HEK293, Brd4 (S); for Dmax: 0-24 hrs; for Abs. T1/2 / T1/2: 1 μM; for Abs. T1/2: time to deplete 50% of the protein relative to DMSO; for T1/2: time to reach 50% of the Dmax
Description: as §1
as §2, with “HEK293” for “HeLa (5×10^5) and HEK293”, “(0.5×10^6)” for “(1×10^6)”, “1 μM concentration,” for “the desired concentration (1 nM-10 μM),”, “incubation for the desired time (0-24 hrs),” for “4 h treatment time,”, “complete” for “cOmplete”
as §4

[8] = biological target: T3, Brd4 (L); assay: Time-dependent BET degradation, immunoblot; design: Dmax: dose or concentration left out as unconfirmed; details: HEK293, Brd4 (L); for Dmax: 0-24 hrs; for Abs. T1/2 / T1/2: 1 μM; for Abs. T1/2: time to deplete 50% of the protein relative to DMSO; for T1/2: time to reach 50% of the Dmax
Description: as §1
as §2, with “HEK293” for “HeLa (5×10^5) and HEK293”, “(0.5×10^6)” for “(1×10^6)”, “1 μM concentration,” for “the desired concentration (1 nM-10 μM),”, “incubation for the desired time (0-24 hrs),” for “4 h treatment time,”, “complete” for “cOmplete”
as §4

T1 sequence (P25440 whole entry): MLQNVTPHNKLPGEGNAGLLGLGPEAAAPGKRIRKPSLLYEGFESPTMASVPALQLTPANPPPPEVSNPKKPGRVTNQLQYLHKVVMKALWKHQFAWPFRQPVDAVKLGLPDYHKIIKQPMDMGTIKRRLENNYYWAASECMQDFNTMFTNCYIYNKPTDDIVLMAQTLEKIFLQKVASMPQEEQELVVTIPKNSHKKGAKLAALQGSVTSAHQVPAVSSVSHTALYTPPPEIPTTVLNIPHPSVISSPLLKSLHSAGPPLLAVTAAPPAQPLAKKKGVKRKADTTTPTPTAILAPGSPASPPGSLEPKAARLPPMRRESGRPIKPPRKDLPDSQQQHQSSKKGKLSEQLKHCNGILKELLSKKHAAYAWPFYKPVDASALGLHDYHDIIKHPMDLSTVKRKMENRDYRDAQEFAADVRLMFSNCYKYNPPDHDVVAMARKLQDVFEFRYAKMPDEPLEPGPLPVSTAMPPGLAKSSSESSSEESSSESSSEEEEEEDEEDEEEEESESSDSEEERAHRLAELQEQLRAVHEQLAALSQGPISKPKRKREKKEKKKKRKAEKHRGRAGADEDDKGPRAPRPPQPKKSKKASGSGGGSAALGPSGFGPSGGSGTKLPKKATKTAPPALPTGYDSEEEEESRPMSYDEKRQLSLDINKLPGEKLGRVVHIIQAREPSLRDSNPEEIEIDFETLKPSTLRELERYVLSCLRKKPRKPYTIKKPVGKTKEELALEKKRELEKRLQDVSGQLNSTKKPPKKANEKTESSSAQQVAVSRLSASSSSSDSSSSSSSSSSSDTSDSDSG

SMILES	DC50 ([1]; HEK293, Brd2, 4 h)	Dmax ([1]; HEK293, Brd2, 4 h)	DC50 ([1]; HeLa, Brd2, 4 h)	Dmax ([1]; HeLa, Brd2, 4 h)	Dmax at 1 µM [2]	Abs. T1/2 [2]	T1/2 [2]	Dmax at 1 µM [3]	Abs. T1/2 [3]	T1/2 [3]	DC50 ([4]; HEK293, Brd4 (S))	Dmax ([4]; HEK293, Brd4 (S))	DC50 ([4]; HeLa)	Dmax ([4]; HeLa)	DC50 ([5]; HEK293, Brd4 (L))	Dmax ([5]; HEK293, Brd4 (L))	DC50 ([5]; HeLa)	Dmax ([5]; HeLa)	Dmax [7]	Abs. T1/2 [7]	further results
Cc1sc2c(c1C)C(c1ccc(Cl)cc1)=N[C@@H](CC(=O)NCCCCNC(=O)c1cc(S)c3ncc(C(=O)NCCc4nccs4)cc3c1)c1nnc(C)n1-2 [Example 11JQ7]	51 to 500 nM	≥ 71%	≥ 501 nM	≥ 71%	95%	3.4 h	2.9 h	80%	3.2 h	1.8 h	51 to 500 nM	≥ 71%	≤ 50 nM	≥ 71%	51 to 500 nM	≥ 71%	≤ 50 nM	≥ 71%	99%	1.9 h	Brd2, Brd3 and Brd4 protein levels (FIG. 1) ([6]; HEK293, 1 μM compound, 4 h, relative to 0.1% DMSO): approaching the potency of PROTAC MZ1; T1/2 [7]: 1.9 h; Dmax [8]: 98%; Abs. T1/2 [8]: 1.2 h; T1/2 [8]: 1.2 h
Cc1sc2c(c1C)C(c1ccc(Cl)cc1)=N[C@@H](CC(=O)NCCOCCNC(=O)c1cc(SC(=O)c3ccccc3)c3ncc(C(=O)NCCc4nccs4)cc3c1)c1nnc(C)n1-2 [Example 11JQ15]	51 to 500 nM	26 to 50%	51 to 500 nM	26 to 50%	70%	2.6 h	1.5 h	50%	5.7 h	1.1 h	51 to 500 nM	51 to 70%	51 to 500 nM	51 to 70%	51 to 500 nM	51 to 70%	51 to 500 nM	51 to 70%	90%	1.2 h	Brd2, Brd3 and Brd4 protein levels (FIG. 5) [6]: depletion of Brd2, Brd3 and Brd4 protein levels; Brd2, Brd3 and Brd4 protein levels (FIG. 4) ([6]; 4 h): depletion of Brd2, Brd3 and Brd4 protein levels; T1/2 [7]: 0.9 h; Dmax [8]: 90%; Abs. T1/2 [8]: 1.1 h; T1/2 [8]: 0.8 h
Cc1sc2c(c1C)C(c1ccc(Cl)cc1)=N[C@@H](CC(=O)NCCCCNC(=O)c1cc(SC(=O)c3ccccc3)c3ncc(C(=O)NCCc4nccs4)cc3c1)c1nnc(C)n1-2 [Example 11JQ16]	51 to 500 nM	≥ 71%	51 to 500 nM	51 to 70%	95%	1.9 h	1.6 h	75%	2.7 h	1.7 h	≤ 50 nM	≥ 71%	51 to 500 nM	≥ 71%	≤ 50 nM	≥ 71%	51 to 500 nM	≥ 71%	95%	0.6 h	Brd2, Brd3 and Brd4 protein levels (FIG. 5) [6]: depletion of Brd2, Brd3 and Brd4 protein levels; Brd2, Brd3 and Brd4 protein levels (FIG. 4) ([6]; 4 h): depletion of Brd2, Brd3 and Brd4 protein levels; T1/2 [7]: 0.6 h; Dmax [8]: 98%; Abs. T1/2 [8]: 1.0 h; T1/2 [8]: 1.0 h
